Measurements reported in publication PMC11950852, “Diversity Scale of Library Matters: Impact of mRNA Library Diversity Scales on the Discovery of Macrocyclic Peptides Targeting a Protein by the RaPID System” (ACS Central Science, 2025).
Where a SMILES comes first, the peptide text is derived from it. Bridges are numbered along the chain shown (N, C = ends).

Biological target: Fc-fused MET (His-/hFc-tagged human MET ectodomain) (Homo sapiens, UniProt P08581)
Test: SPR binding kinetics of selected macrocyclic peptides to Fc-fused MET
Details: for kon: pH 7.4, read-out: ka

| kd (SPR conditions as E1) | kon | SMILES | Kd (KD, SPR conditions as E1, 1:1 binding model) | kd (quoted in text) (SPR conditions as E1) | kd (quoted in text) (SPR conditions as E1, listed as 8–2) | fold slower kd than other species of the E8 library (other species kd = ∼50 × 10^–3 s^–1) | ka (SPR conditions as E1) | fold slower kd compared to 6–1 (ratio of SPR kd values) |
| --- | --- | --- | --- | --- | --- | --- | --- | --- |
| 0.00198 s⁻¹ | 798000 M⁻¹ s⁻¹ | CC(C)[C@@H]1NC(=O)[C@H](C)NC(=O)[C@H](CC(=O)O)NC(=O)[C@H](Cc2ccccc2)NC(=O)[C@H](CC(=O)O)NC(=O)[C@H](CCCNC(=N)N)NC(=O)CNC(=O)[C@H]([C@@H](C)O)NC(=O)[C@H](Cc2c[nH]c3ccccc23)NC(=O)[C@H](CO)NC(=O)[C@H](Cc2ccc(O)cc2)NC(=O)[C@H](Cc2ccc(O)cc2)NC(=O)CSC[C@@H](C(=O)NCC(N)=O)NC(=O)[C@H](CCCCN)NC(=O)[C@H](CC(N)=O)NC(=O)[C@H](Cc2c[nH]c3ccccc23)NC(=O)[C@H](CCCCN)NC1=O [14-4] ({CH2CO}-YYSWTGRDFDAVKWNKCG-NH2; thioether N-17) | – | – | – | – | – | – |
| 0.000739 s⁻¹ | 257000 M⁻¹ s⁻¹ | CC(C)C[C@@H]1NC(=O)[C@H](CCCCN)NC(=O)CNC(=O)[C@H](Cc2ccccc2)NC(=O)CNC(=O)[C@H](Cc2ccc(O)cc2)NC(=O)[C@H](C(C)C)NC(=O)[C@H](Cc2c[nH]c3ccccc23)NC(=O)[C@H](Cc2ccc(O)cc2)NC(=O)CSC[C@@H](C(=O)NCC(N)=O)NC(=O)[C@H](Cc2ccccc2)NC(=O)[C@H](C)NC(=O)[C@H](CCCNC(=N)N)NC(=O)[C@H](Cc2c[nH]c3ccccc23)NC(=O)[C@H](CC(=O)O)NC(=O)[C@H](CC(N)=O)NC(=O)[C@H](CC(N)=O)NC1=O [14-1] ({CH2CO}-YWVYGFGKLNNDWRAFCG-NH2; thioether N-17) | – | – | – | – | – | – |
| 0.00413 s⁻¹ | 476000 M⁻¹ s⁻¹ | CC(C)[C@@H]1NC(=O)[C@H](CC(N)=O)NC(=O)CNC(=O)[C@H](CO)NC(=O)[C@H](Cc2c[nH]c3ccccc23)NC(=O)[C@H](CO)NC(=O)[C@H](Cc2ccc(O)cc2)NC(=O)[C@H](Cc2ccc(O)cc2)NC(=O)CSC[C@@H](C(=O)NCC(N)=O)NC(=O)[C@H](CO)NC(=O)[C@H](CC(N)=O)NC(=O)[C@H](Cc2c[nH]c3ccccc23)NC(=O)[C@H](CCCCN)NC(=O)[C@H](C(C)C)NC(=O)[C@H](CO)NC(=O)[C@H](CCC(=O)O)NC(=O)[C@H](CO)NC1=O [12-2] ({CH2CO}-YYSWSGNVSESVKWNSCG-NH2; thioether N-17) | – | – | – | – | – | – |
| 0.00836 s⁻¹ | 129000 M⁻¹ s⁻¹ | CC[C@H](C)[C@@H]1NC(=O)[C@H](C(C)C)NC(=O)[C@H](Cc2c[nH]c3ccccc23)NC(=O)[C@H](CC(=O)O)NC(=O)[C@H](CO)NC(=O)[C@H](CO)NC(=O)[C@H](CC(=O)O)NC(=O)[C@H](Cc2ccc(O)cc2)NC(=O)[C@H](Cc2ccc(O)cc2)NC(=O)[C@H](CCCCN)NC(=O)[C@H](Cc2c[nH]c3ccccc23)NC(=O)[C@H](CO)NC(=O)[C@H](CC(C)C)NC(=O)[C@H](Cc2ccc(O)cc2)NC(=O)CSC[C@@H](C(=O)NCC(N)=O)NC(=O)[C@H](CO)NC(=O)[C@H](CC(C)C)NC1=O [14-5] ({CH2CO}-YLSWKYYDSSDWVILSCG-NH2; thioether N-17) | – | – | – | – | – | – |
| 0.00809 s⁻¹ | 26300 M⁻¹ s⁻¹ | CC[C@H](C)[C@@H]1NC(=O)[C@H](Cc2ccc(O)cc2)NC(=O)CSC[C@@H](C(=O)NCC(N)=O)NC(=O)[C@H](CS)NC(=O)[C@H](CC(N)=O)NC(=O)[C@H](CS)NC(=O)[C@H](CC(N)=O)NC(=O)[C@H](Cc2c[nH]c3ccccc23)NC(=O)[C@H](CC(C)C)NC(=O)[C@H](CCCCN)NC(=O)[C@H](CO)NC(=O)[C@H](CC(N)=O)NC(=O)[C@H](Cc2ccccc2)NC(=O)[C@H](CCCNC(=N)N)NC(=O)[C@H](CC(N)=O)NC(=O)[C@H](Cc2c[nH]c3ccccc23)NC(=O)[C@H](CCC(=O)O)NC1=O [10-4] ({CH2CO}-YIEWNRFNSKLWNCNCCG-NH2; thioether N-17) | – | – | – | – | – | – |
| 0.00254 s⁻¹ | 79500 M⁻¹ s⁻¹ | CC[C@H](C)[C@@H]1NC(=O)[C@H](Cc2ccc(O)cc2)NC(=O)CSC[C@@H](C(=O)NCC(N)=O)NC(=O)[C@@H]2CCCN2C(=O)[C@H](CCCNC(=N)N)NC(=O)[C@H](C(C)C)NC(=O)[C@H](Cc2ccccc2)NC(=O)[C@H](Cc2c[nH]c3ccccc23)NC(=O)[C@H](CC(=O)O)NC(=O)[C@H](CCCCN)NC(=O)[C@H](CO)NC(=O)[C@H](C)NC(=O)[C@H](Cc2ccc(O)cc2)NC(=O)[C@H](C)NC(=O)[C@H](Cc2ccccc2)NC(=O)[C@H](Cc2c[nH]c3ccccc23)NC(=O)[C@H](CO)NC1=O [12-1] ({CH2CO}-YISWFAYASKDWFVRPCG-NH2; thioether N-17) | – | 2.54 × 10^–3 s^–1 | – | – | – | – |
| 0.00182 s⁻¹ | 464000 M⁻¹ s⁻¹ | CC[C@H](C)[C@@H]1NC(=O)[C@H](C(C)C)NC(=O)[C@H](CO)NC(=O)[C@H](CC(=O)O)NC(=O)[C@H](C(C)C)NC(=O)[C@H](CC(=O)O)NC(=O)[C@H](CCCCN)NC(=O)CNC(=O)[C@H](CO)NC(=O)[C@H](Cc2c[nH]c3ccccc23)NC(=O)[C@H](CO)NC(=O)[C@H](Cc2ccc(O)cc2)NC(=O)[C@H](Cc2ccc(O)cc2)NC(=O)CSC[C@@H](C(=O)NCC(N)=O)NC(=O)[C@H](CC(N)=O)NC(=O)[C@H](CC(N)=O)NC(=O)[C@H](Cc2c[nH]c3ccccc23)NC1=O [14-2] ({CH2CO}-YYSWSGKDVDSVIWNNCG-NH2; thioether N-17) | – | – | – | – | – | – |

| SMILES | kd (SPR conditions as E1) | kon | Kd (KD, SPR conditions as E1, 1:1 binding model) | kd (quoted in text) (SPR conditions as E1) | kd (quoted in text) (SPR conditions as E1, listed as 8–2) | fold slower kd than other species of the E8 library (other species kd = ∼50 × 10^–3 s^–1) | ka (SPR conditions as E1) | fold slower kd compared to 6–1 (ratio of SPR kd values) |
| --- | --- | --- | --- | --- | --- | --- | --- | --- |
| CC(C)[C@@H]1NC(=O)[C@H](CCCCN)NC(=O)[C@H](CC(=O)O)NC(=O)CNC(=O)[C@H](CC(=O)O)NC(=O)[C@H](CCCNC(=N)N)NC(=O)CNC(=O)[C@H](CC(N)=O)NC(=O)[C@H](Cc2c[nH]c3ccccc23)NC(=O)[C@H](Cc2c[nH]cn2)NC(=O)[C@H](Cc2ccc(O)cc2)NC(=O)[C@H](Cc2ccc(O)cc2)NC(=O)CSC[C@@H](C(=O)NCC(N)=O)NC(=O)[C@H](C(C)C)NC(=O)[C@H](C(C)C)NC(=O)[C@H](Cc2c[nH]c3ccccc23)NC(=O)[C@H](CCC(=O)O)NC1=O [8-2] ({CH2CO}-YYHWNGRDGDKVEWVVCG-NH2; thioether N-17) | 0.0103 s⁻¹ | 475000 M⁻¹ s⁻¹ | 0.0216 µM | ~10 × 10^–3 s^–1 | 10.3 × 10^–3 s^–1 | 5 fold | – | – |
| CC(C)C[C@@H]1NC(=O)[C@H]([C@@H](C)O)NC(=O)[C@H](CCCCN)NC(=O)[C@H](C)NC(=O)[C@H](Cc2c[nH]c3ccccc23)NC(=O)[C@H](CCCCN)NC(=O)[C@H](C)NC(=O)[C@H](C(C)C)NC(=O)[C@H](CC(N)=O)NC(=O)[C@H]([C@@H](C)O)NC(=O)[C@H](Cc2c[nH]c3ccccc23)NC(=O)[C@H](CC(N)=O)NC(=O)[C@H](Cc2ccc(O)cc2)NC(=O)[C@H](Cc2ccc(O)cc2)NC(=O)[C@H](Cc2ccccc2)NC(=O)[C@H](Cc2ccc(O)cc2)NC(=O)CSC[C@@H](C(=O)NCC(N)=O)NC1=O [6-2] ({CH2CO}-YFYYNWTNVAKWAKTLCG-NH2; thioether N-17) | 0.0074 s⁻¹ | 72500 M⁻¹ s⁻¹ | – | 7.4 × 10^–3 s^–1 | – | – | 0.725 × 10^5 M^–1 s^–1 | 7 fold |
| C[C@@H]1NC(=O)[C@H](C)NC(=O)[C@H](CC(=O)O)NC(=O)[C@H](Cc2ccc(O)cc2)NC(=O)[C@H](CCC(=O)O)NC(=O)[C@H](CCC(=O)O)NC(=O)[C@H](Cc2c[nH]c3ccccc23)NC(=O)[C@H](CCCNC(=N)N)NC(=O)CNC(=O)[C@H](CC(=O)O)NC(=O)[C@H](Cc2ccccc2)NC(=O)[C@H]([C@@H](C)O)NC(=O)[C@H](Cc2ccc(O)cc2)NC(=O)[C@H](Cc2ccc(O)cc2)NC(=O)[C@H](Cc2c[nH]c3ccccc23)NC(=O)[C@H](Cc2ccc(O)cc2)NC(=O)CSC[C@@H](C(=O)NCC(N)=O)NC1=O [8-3] ({CH2CO}-YWYYTFDGRWEEYDAACG-NH2; thioether N-17) | 0.0464 s⁻¹ | 233000 M⁻¹ s⁻¹ | – | 46.4 × 10^–3 s^–1 | – | – | 2.33 × 10^5 M^–1 s^–1 | – |
